Test results reported in patent US7737127B2, “2-propynyl adenosine analogs having A2A agonist activity and compositions thereof” (University of Virginia Patent Foundation, priority 2001, dated 2010).
Where two headings read alike, the source gives them in different places.

Assays:
human neutrophils = experiment: Human neutrophil oxidative activity, luminol-enhanced chemiluminescence; type: cell-based; settings: for EC50: Homo sapiens, Neutrophil, read-out: PMN oxid (-log EC50) (converted); for EC50 / PMN oxid (-log EC50): human neutrophil experiment w/o Rolipram; for PMN oxid + roli (-log EC50): human neutrophil experiment w/Rolipram
Procedure: Chemiluminescence Methods: Lumninol enhanced chemiluminescence, a measure of neutrophil oxidative activity, is dependent upon both superoxide production and mobilization of the granule enzyme myeloperoxidase. The light is emitted from unstable high-energy oxygen species such as hypochlorous acid and singlet oxygen generated by activated neutrophils.
The plate was incubated 5 min (37 C) and then fMLP (50 l in HA; final concentration […]) was added to all wells.
Data are presented as peak chemiluminescence as percent of activity in the absence of an adenosine agonist. The EC50 was determined using PRISM software. All compounds were tested with PMNs from three separate donors.
Lummol-enhanced chemiluminescence, a measure of neutrophil oxidative activity, is dependent upon both superoxide production and mobilization of the lysosomal granule enzyme myeloperoxidase. The light is emitted from unstable high-energy oxygen species generated by activated neutrophils. Purified neutrophils (5-10×10^5/ml) were incubated in Hanks balanced salt solution containing 0.1% human serum albumin (1 ml) with the tested A2A agonist with or without rolipram and with or without tumor necrosis factor-alpha (1 U/ml) for 30 minutes at 37° C. in a shaking water bath. […] Chemiluminescence is reported as relative peak light emitted (=height of the curve) compared to samples with tumor necrosis factor-alpha and without agonist or rolipram.

human A1 AR = target: T1, human A1 AR (Homo sapiens, UniProt P30542); experiment: Radioligand competition binding (125I-ABA) to human A1 AR in CHO K1 cell membranes; settings: for Ki: Ki from competition binding, 125I-ABA, CHO K1 cell membranes; for A1/A2A: selectivity ratio A1 over A2A
T1 sequence (P30542 1-326): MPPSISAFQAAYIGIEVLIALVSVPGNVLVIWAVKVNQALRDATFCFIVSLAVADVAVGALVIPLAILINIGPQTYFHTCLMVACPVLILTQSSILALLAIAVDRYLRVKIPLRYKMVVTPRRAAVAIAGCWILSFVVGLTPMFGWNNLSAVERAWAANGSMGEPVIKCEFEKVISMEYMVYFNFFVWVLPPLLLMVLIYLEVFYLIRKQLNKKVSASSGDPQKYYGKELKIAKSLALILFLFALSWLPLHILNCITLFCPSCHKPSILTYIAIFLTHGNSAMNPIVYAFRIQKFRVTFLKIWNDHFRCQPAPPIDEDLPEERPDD
Procedure: (§1) Sf9 cells were cultured in Grace's medium supplemented with 10% fetal bovine serum, 2.5 μg/ml amphotericin B and 50 μg/ml gentamycin in an atmosphere of 50% N2/50% O2. […] Infected cells were harvested 3 days post-infection and washed twice in insect PBS (PBS pH 6.3). Cells were then resuspended in lysis buffer (20 mM HEPES pH 7.5, 150 mM NaCl, 3 mM MgCl2, 1 mM β-mercaptoethanol (BME), 5 μg/mL leupeptin, 5 μg/mL pepstatin A, 1 μg/mL aprotinin, and 0.1 mM PMSF) and snap frozen for storage at −80° C. Cells were thawed on ice, brought to 30 mL total volume in lysis buffer, and burst by N2 cavitation (600 psi for 20 minutes). A low-speed centrifugation was performed to remove any unlysed cells (1000×g for 10 minutes), followed by a high-speed centrifugation (17,000×g for 30 minutes). The pellet from the final centrifugation was homogenized in buffer containing 20 mM HEPES pH 8, 100 mM NaCl, 1% glycerol, 2 μg/mL leupeptin, 2 μg/mL pepstatin A, 2 μg/mL Aprotinin, 0.1 mM PMSF, and 10 μM GDP using a small glass homogenizer followed by passage through a 26 gauge needle. Membranes were aliquoted, snap frozen in liquid N2, and stored at −80° C.
(§2) Binding experiments were performed in triplicate with 5 μg (A2A) or 25 μg (A1 and A3) membrane protein in a total volume of 0.1 mL HE buffer (20 mM HEPES and 1 mM EDTA) with 1 U/mL adenosine deaminase and 5 mM MgCl2 with or without 50 μM GTPγS. Membranes were incubated with radioligands at room temperature for three hours (for agonists) or two hours (for antagonists) in Millipore Multiscreene® 96-well GF/C filter plates and assays were terminated by rapid filtration on a cell harvester (Brandel, Gaithersburg, Md.) followed by 4×150 μl washes over 30 seconds with ice cold 10 mM Tris-HCl, pH 7.4, 10 mM MgCl2.

A3 AR = target: T2, A3 AR (Homo sapiens, UniProt P0DMS8); experiment: Radioligand competition binding (125I-ABA) to human A3 AR in HEK 293 cell membranes; settings: for Ki: Ki from competition binding, 125I-ABA, HEK 293 cell membranes; for A3/A2A: selectivity ratio A3 over A2A
T2 sequence (P0DMS8 1-318): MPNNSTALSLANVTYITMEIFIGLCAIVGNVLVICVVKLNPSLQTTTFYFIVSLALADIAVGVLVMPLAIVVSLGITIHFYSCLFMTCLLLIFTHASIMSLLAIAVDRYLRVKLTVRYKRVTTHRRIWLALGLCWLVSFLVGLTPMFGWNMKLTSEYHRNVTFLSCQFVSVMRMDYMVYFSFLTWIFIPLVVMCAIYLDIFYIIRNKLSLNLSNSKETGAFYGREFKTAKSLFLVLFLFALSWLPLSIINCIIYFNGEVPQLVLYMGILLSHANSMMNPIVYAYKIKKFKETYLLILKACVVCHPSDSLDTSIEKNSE
Procedure: as §1, §2

[1] = target: recombinant human A2A receptors (Homo sapiens, UniProt P29274); experiment: Radioligand competition binding to recombinant human A2A receptors in Sf9 cell membranes; settings: Ki from competition binding, Sf9 cell membranes
Chain of recombinant human A2A receptors (P29274 whole entry): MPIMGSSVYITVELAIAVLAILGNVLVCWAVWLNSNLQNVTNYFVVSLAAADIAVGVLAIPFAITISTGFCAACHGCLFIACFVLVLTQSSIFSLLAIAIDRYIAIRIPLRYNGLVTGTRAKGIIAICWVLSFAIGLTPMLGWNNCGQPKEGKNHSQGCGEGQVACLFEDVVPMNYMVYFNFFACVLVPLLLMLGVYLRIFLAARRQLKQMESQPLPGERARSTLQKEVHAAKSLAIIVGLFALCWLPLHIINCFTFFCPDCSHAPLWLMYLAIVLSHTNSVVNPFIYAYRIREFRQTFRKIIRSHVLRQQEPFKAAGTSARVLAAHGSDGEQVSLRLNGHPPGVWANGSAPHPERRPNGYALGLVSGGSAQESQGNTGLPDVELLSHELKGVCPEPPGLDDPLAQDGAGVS
Procedure: as §1, §2

Structure (SMILES)	EC50 (human neutrophils)	PMN oxid + roli (-log EC50) (human neutrophils)	Ki (human A1 AR; A1 ± SEM)	A1/A2A (human A1 AR)	Ki (A3 AR; A3 ± SEM)	A3/A2A (A3 AR)	Ki ([1]; A2A ± SEM)	PMN oxid (-log EC50) (human neutrophils)	Ki (human A1 AR; read-out: A1 ± SEM)	Ki (A3 AR; read-out: A3 ± SEM)	Ki ([1]; read-out: A2A ± SEM)
CCNC(=O)[C@H]1O[C@@H](n2cnc3c(N)nc(C#CCC4CCC(C(N)=O)CC4)nc32)C(O)C1O (stereo in doubt) [JR-3055, 5-{6-Amino-2-[3-(4-carbamoyl-cyclohexyl)-prop-1-ynyl]purin-9-yl}-3,4-dihydroxytetrahydrofuran-2-carboxylic acid ethylamide]	0.0316 µM	8.64	0.036 ± 0.002 µM	20.0	0.028 ± 0.003 µM	15.6	0.0018 ± 0.0002 µM	–	–	–	–
CCNC(=O)[C@H]1O[C@@H](n2cnc3c(N)nc(C#CC4(O)CCCCC4C(C)(C)C)nc32)C(O)C1O (stereo in doubt) [JR-3227, 5-[6-Amino-2-(2-tert-butyl-1-hydroxycyclohexylethynyl)purin-9-yl]-3,4-dihydroxytetrahydrofuran-2-carboxylic acid ethylamide]	7.41 µM	7.14	0.536 µM	21.4	0.05 µM	2.0	0.0251 ± 0.0013 µM	–	–	–	–
CCNC(=O)[C@H]1O[C@@H](n2cnc3c(N)nc(C#CC4(O)CCCCNC4=O)nc32)C(O)C1O (single isomer, unassigned) [JR-3243A, 5-[6-Amino-2-(3-hydroxy-2-oxo-azepan-3-ylethynyl)purin-9-yl]-3,4-dihydroxytetrahydrofuran-2-carboxylic acid ethylamide]	–	7.65	0.0296 ± 0.0048 µM	2.5	0.0311 ± 0.0072 µM	2.6	0.0119 ± 0.0013 µM	6.42	–	–	–
CCNC(=O)[C@H]1O[C@@H](n2cnc3c(N)nc(C#CC4(O)CCCC(C)C4)nc32)C(O)C1O (some centres unmarked) [JR-3179, 5-[6-Amino-2-(1-hydroxy-3-methyl-cyclohexylethynyl)-purin-9-yl]-3,4-dihydroxytetrahydrofuran-2-carboxylic acid ethylamide]	0.000661 µM	10.07	0.0085 ± 0.0003 µM	19.3	0.0126 ± 0.0036 µM	28.6	0.0004 ± 5e-05 µM	–	–	–	–
CCNC(=O)[C@H]1O[C@@H](n2cnc3c(N)nc(C#CCC4CCC(C(=O)OCCN)CC4)nc32)C(O)C1O (stereo in doubt) [JR-3033, 4-{3-[6-Amino-9-(5-ethylcarbamoyl-3,4-dihydroxy-tetrahydrofuran-2-yl)-9H-purin-2-yl]-prop-2-ynyl}-cyclohexanecarboxylic acid 2-amino-ethyl ester]	0.049 µM	8.67	0.0151 ± 0.0039 µM	9.7	0.026 ± 0.014 µM	16.7	0.0016 ± 2e-05 µM	–	–	–	–
CCNC(=O)[C@H]1O[C@@H](n2cnc3c(N)nc(C#C[C@@]4(O)CCC[C@@H](C)C4)nc32)C(O)C1O (some centres unmarked) [JR-3221, 5-[6-Amino-2-(1-hydroxy-3-methylcyclobexylethynyl)purin-9-yl]-3,4-dihydroxytetrahydrofuran-2-carboxylic acid ethylamide]	0.0501 µM	8.21	0.0195 ± 0.00012 µM	3.8	0.009 ± 0.0055 µM	1.8	0.00508 ± 0.00081 µM	–	–	–	–
CCNC(=O)[C@H]1O[C@@H](n2cnc3c(N)nc(C#CC4(O)CCCCC4C)nc32)C(O)C1O (single isomer, unassigned) [JR-3181B, 5-[6-Amino-2-(1-hydroxy-2-methyl-cyclohexylethynyl)-purin-9-yl]-3,4-dihydroxytetrahydrofuran-2-carboxylic acid ethylamide]	–	9.67	0.0242 ± 0.0062 µM	36.1	0.0389 ± 0.0048 µM	58.1	0.0007 ± 7e-05 µM	8.57	–	–	–
CCNC(=O)C1OC(n2cnc3c(N)nc(C#CC(O)C4CCCCC4)nc32)C(O)C1O (single isomer, unassigned) [JR-3159A]	–	9.34	–	1.4	–	6.6	–	8.43	0.0009 ± 5e-05 µM	0.0039 ± 0.0015 µM	0.0006 ± 6e-05 µM
CCNC(=O)[C@H]1O[C@@H](n2cnc3c(N)nc(C#CC4(O)CC(C)(C)CC(C)(C)C4)nc32)C(O)C1O (stereo in doubt) [JR-3163, 5-[6-Amino-2-(1-hydroxy-3,3,5,5-tetramethyl-cyclohexylethynyl)-purin-9-yl]-3,4-dihydroxytetrahydrofuran-2-carboxylic acid ethylamide]	0.537 µM	7.67	0.784 ± 0.094 µM	70.6	0.152 ± 0.062 µM	13.7	0.0111 ± 0.0028 µM	–	–	–	–
CCNC(=O)C1OC(n2cnc3c(N)nc(C#CCC4CCNCC4)nc32)C(O)C1O (centres unmarked) [JR-3261]	–	7.6	–	8.3	–	15.2	–	6.4	0.0473 ± 0.0116 µM	0.0867 ± 0.00375 µM	0.0057 ± 0.0018 µM
CCNC(=O)[C@H]1O[C@@H](n2cnc3c(N)nc(C#CCN4CCN(c5ncccn5)CC4)nc32)C(O)C1O (stereo in doubt) [JR-3283, 5-{6-Amino-2-[3-(4-pyrimidin-2-yl-piperazin-1-yl)-prop-1-ynyl]-purin-9-yl}-3,4-dihydroxytetrahydrofuran-2-carboxylic acid ethylamide]	0.00575 µM	–	0.0153 ± 0.0004 µM	4.6	0.0662 µM	19.0	0.002 ± 0.00025 µM	–	–	–	–
CCNC(=O)[C@H]1O[C@@H](n2cnc3c(N)nc(C#CCC4CCN(C(=O)OC(C)(C)C)CC4)nc32)C(O)C1O (stereo in doubt) [JR-3259, 4-{3-[6-Amino-9-(5-ethylcarbamoyl-3,4-dihydroxytetrahydrofuran-2-yl)-9H-purin-2-yl]-prop-2-ynyl}-piperidine-1-carboxylic acid tert-butyl ester]	0.00347 µM	9.26	0.205 ± 0.0026 µM	227.8	0.0456 ± 0.01 µM	50.7	0.0009 ± 0.0001 µM	–	–	–	–
CCNC(=O)C1OC(n2cnc3c(N)nc(C#CC(O)C4CCCCC4)nc32)C(O)C1O (single isomer, unassigned) [JR-3159B]	–	10.36	–	5.7	–	7.4	–	9.44	0.002 ± 0.00021 µM	0.0026 ± 0.0003 µM	0.0004 ± 7e-05 µM
CCNC(=O)C1CCC(CC#Cc2nc(N)c3ncn([C@@H]4O[C@H](C(=O)NCC)C(O)C4O)c3n2)CC1 (stereo in doubt) [JR-3037, 5-{6-Amino-2-[3-(4-ethylcarbamoyl-cyclohexyl)-prop-1-ynyl]-purin-9-yl}-3,4-dihydroxytetrahydrofuran-2-carboxylic acid ethylamide]	0.0457 µM	8.68	0.113 ± 0.011 µM	27.6	0.093 ± 0.021 µM	22.7	0.0041 ± 0.0009 µM	–	–	–	–
CCNC(=O)[C@H]1O[C@@H](n2cnc3c(N)nc(C#CC4(O)CCCCC4C)nc32)C(O)C1O (single isomer, unassigned) [JR-3177B, 5-[6-Amino-2-(1-hydroxy-2-methyl-cyclohexylethynyl)-purin-9-yl]-3,4-dihydroxytetrahydrofuran-2-carboxylic acid ethylamide]	–	9.45	0.0155 ± 0.0007 µM	23.1	0.0075 ± 0.0045 µM	11.2	0.0007 ± 7e-05 µM	8.5	–	–	–
